These results are taken from US20230357261A1, “ARYL HYDROCARBON RECEPTOR LIGANDS AND THEIR ANALOGUES FOR THE PREVENTION AND TREATMENT OF INFLAMMATORY DISORDERS” (The Johns Hopkins University, priority 2020, published 2023).

Molecules are shown by their SMILES. Entries after “also recorded” stand apart in the source; their conditions may differ. A value given as a limit tells only on which side of the number the result lay.

One series concerns TLR4. Briefly: TLR4 signaling in mouse ileal enteroids (LPS-induced Tnf-a qRT-PCR). In kind it is cell-based. The note with it: wildtype mouse enteroids; tested compound 40 uM overnight, then LPS 50 μg/mL 6 hours. As to the method:
(§1) Primary intestinal crypt cultures (enteroids) were generated from the ileum of neonatal (p7-p11) wild type and Ahr′ mice at as described, Neal et al., 2012, and maintained in Matrigel (Corning). The enteroids were digested and passed using TrypLE Express (Gibco) weekly, and used between passage 3 and 10 for all experiments. The enteroids were pre-treated with I3C ([…], 12 h), A18 (20 μM, 12 h) or human breast milk (100 μL/mL, Innovative Research, prepared by 5-minute-cenrifugation at 12,000 g and then filtration of supernatant through a 0.22-μm filter) and then treated with LPS (50 μg/mL) for 4 hours for further analysis.
(§2) Primary intestinal crypt cultures (enteroids) were generated from the ileum of neonatal (p7-p11) mice at as described, Neal et al., 2012, and maintained in Matrigel (Corning). The enteroids were digested and passed using TrypLE Express (Gibco) weekly, and used between passage 3 and 10 for all experiments. The enteroids were pre-treated with tested compound (40 uM, overnight) and then treated with LPS (50 μg/mL) for 6 hours for further analysis.
(§3) Total RNA was isolated using the RNeasy mini kit (Qiagen) and complementary DNA was synthesized from 0.5 μg RNA using QuantiTect Reverse Transcription kit (Qiagen) following the manufacturer's protocols. The mRNA quantification was performed on the Bio-Rad CFX96 Real-Time System (Bio-Rad) using iTaq™ universal SYBR® Green supermix (Bio-Rad) and the primers listed in Table 2. The relative mRNA expression levels were normalized against the expression of the housekeeping gene ribosomal protein lateral stalk subunit P0 (Rplp0).
In general terms: Quantitative PCR measures a nucleic acid by following its amplification.

The test system of series [1] is AHR. The series can be described thus: AHR activation (Cyp1a1) in ileum of mice in the NEC model (Example 3). In kind it is in vivo. The note with it: mouse NEC model; 20 mg/kg/day by oral gavage for 4 days.
Description: (§4) Experimental NEC was induced in 7-day old mice as we have previously described, Good et al., 2015; Sodhi et al., 2018; Egan et al., 2016, by gavage feeding newborn mice with formula containing Similac Advance infant formula (Abbott Nutrition): Esbilac (PetAg) canine milk replacer, 2:1 ratio, which was supplemented with enteric bacteria made from a stock created from a specimen obtained from an infant with surgical NEC five times per day.
(§5) Additionally, the mice were subjected to hypoxia (5% 02-95% N2) for 10 min in a hypoxia chamber (Billups-Rothenberg) twice daily for 4 days. The compound #169, compound #243, compound #247 or compound #263 administered by oral gavage during the induction of NEC at the dose of 20 mg/kg body weight/day.
(§6) Age-matched breast milk-fed mouse pups were used as healthy controls. Evaluation of ileal histology by H&E staining and expression of pro-inflammatory cytokines by qRT-PCR at a fixed point in the terminal ileum 2-cm proximal to the cecum, were used to determine the disease severity.
as §3

The next series deals with mouse NEC model. The series can be described thus: Experimental NEC in newborn mice (Example 3). In kind it is in vivo. As to conditions: 20 mg/kg body weight/day for 4 days; for severity of NEC: 20 mg/kg/day.
Description: as §4, §5, §6, §3

The test system of series [2] is AHR. The series can be described thus: AHR activation in mouse ileal enteroids (Cyp1a1 qRT-PCR). The format is cell-based. The note with it: wildtype mouse enteroids, tested compound 40 uM, overnight. As to the method:
as §1, §2, §3

The melting point is the temperature, or range, at which the solid turns liquid. On to `Cc1ccc2nc(SCc3nccc(OCC(F)(F)F)c3C)[nH]c2c1` [compound 18, 5-methyl-2-(((3-methyl-4-(2,2,2-trifluoroethoxy)pyridin-2-yl)methyl)thio)-1H-benzo[d]imidazole], for which the melting point lay in the range of 153 to 155 °C.

With `c1ccc2[nH]c(CSc3ncnc4ccccc34)nc2c1`, the melting point is 198 to 200 °C (dec.).

Take `CCOc1ccnc(CS(=O)(=O)c2nc3ccc(F)cc3[nH]2)c1C` [compound 27, 5-fluoro-2-(((3-methyl-4-ethoxypyridin-2-yl)methyl)sulfonyl)-1H-benzo[d]-imidazole]: the melting point is 177 to 178 °C.

`Cc1c(Oc2ccccc2)ccnc1CSc1nc2ccc(F)cc2[nH]1` [compound 22, 5-fluoro-2-(((3-methyl-4-phenoxypyridin-2-yl)methyl)thio)-1H-benzo[d]imidazole] showed a melting point of 134 to 136 °C.

Molecule `COc1ccnc(CS(=O)(=O)c2nc3cc(F)ccc3[nH]2)c1C` [compound 26, 5-fluoro-2-(((3-methyl-4-methoxypyridin-2-yl)methyl)sulfonyl)-1H-benzo[d]-imidazole] came in with a melting point of 192 to 193 °C.

With `Cc1ccc2nc([S+]([O-])Cc3nccc(OCC(F)(F)F)c3C)[nH]c2c1` (stereo not shown) [compound 24, 5-methyl-2-(((3-methyl-4-(2,2,2-trifluoroethoxy)pyridin-2-yl)methyl)sulfinyl)-1H-benzo[d]-imidazole], the melting point was > 133 °C (dec.).

`Cc1c(OCc2ccccc2)ccnc1CSc1nc2ccc(F)cc2[nH]1` [compound 23, 5-fluoro-2-(((3-methyl-4-benzyloxypyridin-2-yl)methyl)thio)-1H-benzo[d]-imidazole] yielded a melting point of 175 to 177 °C.

For `CCOc1ccnc(CSc2nc3ccc(F)cc3[nH]2)c1C` [compound 21, 5-fluoro-2-(((3-methyl-4-ethoxypyridin-2-yl)methyl)thio)-1H-benzo[d]imidazole], the melting point was in the range of 102 to 104 °C.

As to `N#C/C(=C(/N)c1ncnc2ccccc12)c1nc2ccccc2[nH]1` [compound #263], in the series on TLR4, the “inhibition of TLR4 signaling in mouse enteroids (Tnf-a induction by LPS, FIG. 15b, FIG. 19)” value (“inhibition of TLR4 signaling” below) is “significantly inhibited the TLR4 signaling”. Also, the “expression of Cyp1a1 in vivo (ileum)” value in the series on AHR [1] is given as “significantly induced the expression of Cyp1a1”. Besides, in the series on mouse NEC model, the “expression of IL-1b, IL-6, Tnf-a and Lcn2 in the intestinal epithelium” value is “reduced expression”; the “histological injury (H&E, ileum)” value is “reduced histological injury”; the “severity of NEC” value is reported as “significantly reduced the severity of experimental NEC; also recorded: protects against experimental NEC”.

Turning to `c1ccc2[nH]c(CSc3ncnc4ccccc34)nc2c1` [compound #243], the “activation of AHR signaling in mouse enteroids (Cyp1a1, FIG. 15a)” value (from here on “activation of AHR signaling”) in the series on AHR [2] is recorded as “activated AHR signaling”. In the series on TLR4, the “inhibition of TLR4 signaling” value is “significantly inhibited TLR4 signaling”. In addition, the “expression of Cyp1a1 in vivo (ileum)” value in the series with AHR [1] was “did not induce the expression of Cyp1a1”. Moreover, in the series on mouse NEC model, the “histological injury (H&E, ileum)” value was “reduced histological injury” and the “severity of NEC” value is “did not reduce the severity of NEC; also recorded: didn't not reduce the severity of NEC”.

As for `Cc1c(Oc2ccccc2)ccnc1CS(=O)(=O)c1nc2ccc(F)cc2[nH]1` [compound 28, 5-fluoro-2-(((3-methyl-4-phenoxypyridin-2-yl)methyl)sulfonyl)-1H-benzo[d]-imidazole], the melting point is 155 to 157 °C.

For the molecule `c1ccc2[nH]c(COc3ncnc4ccccc34)nc2c1` [compound #247], in the series with AHR [2], the “activation of AHR signaling” value is on record as “activated AHR signaling”. The “inhibition of TLR4 signaling” value with TLR4 is “significantly inhibited TLR4 signaling”. Moreover, the “expression of Cyp1a1 in vivo (ileum)” value in the series on AHR [1] is listed as “significantly induced the expression of Cyp1a1”. Further, in the series with mouse NEC model, the “histological injury (H&E, ileum)” value was “reduced histological injury” and the “severity of NEC” value is on record as “did not reduce the severity of NEC; also recorded: didn't not reduce the severity of NEC”.

As to `Cc1ccc2nc(S(=O)(=O)Cc3nccc(OCC(F)(F)F)c3C)[nH]c2c1` [compound 25, 5-methyl-2-(((3-methyl-4-(2,2,2-trifluoroethoxy)pyridin-2-yl)methyl)sulfonyl)-1H-benzo[d]-imidazole], the melting point was in the range of 193 to 194 °C.

For the molecule `Cc1c(OCC(F)(F)F)ccnc1CSc1nc2ccc(C#N)cc2[nH]1` [compound 19, 5-cyano-2-(((3-methyl-4-(2,2,2-trifluoroethoxy)pyridin-2-yl)methyl)thio)-1H-benzo[d]-imidazole], the melting point lay in the range of 204 to 205 °C.

In the case of `Cc1cc2c(=O)n(Cc3ccco3)c(SCc3nc4ccccc4[nH]3)nc2s1` [compound #169], in the series with AHR [2], the “activation of AHR signaling” value is on record as “activated AHR”. The “activation of AHR signaling” value in the series on AHR [2] (listed as #169) is recorded as “activated AHR signaling”. Besides, the “inhibition of TLR4 signaling” value with TLR4 is “significantly inhibited TLR4 signaling”. Further, the “expression of Cyp1a1 in vivo (ileum)” value with AHR [1] is “did not induce the expression of Cyp1a1”. Further, in the series with mouse NEC model, the “histological injury (H&E, ileum)” value was “reduced histological injury” and the “severity of NEC” value is given as “did not reduce the severity of NEC; also recorded: didn't not reduce the severity of NEC”.

The molecule `Cc1c(OCc2ccccc2)ccnc1CS(=O)(=O)c1nc2ccc(F)cc2[nH]1` [compound 29, 5-fluoro-2-(((3-methyl-4-benzyloxypyridin-2-yl)methyl)sulfonyl)-1H-benzo[d]-imidazole] had a melting point of 185 to 188 °C.

`COc1ccnc(CSc2nc3ccc(F)cc3[nH]2)c1C` [compound 20, 5-fluoro-2-(((3-methyl-4-methoxypyridin-2-yl)methyl)thio)-1H-benzo[d]imidazole] registered a melting point of 153 to 155 °C.
